From US11857588B2, “Reproductive cell maintenance system” (Membrane Protective Technologies, Inc., priority 2005, dated 2024)
Like-named read-outs stand apart in the source and are kept apart here.

Tests used:
stallion sperm cells [1] = type: cell-based
Description: In a first experiment (data set out to the right of Exp 1 in Tables 1-6), semen was collected from two stallions via artificial vagina. The motility of each ejaculate was determined subjectively via light microscope and the semen was diluted to a final concentration of about 5×10^8 motile sperm cells/ml with E-Z freezin LE (Animal Reproduction Systems, Chino, Calif.) and combined to one each of thirteen 0.25 mL semen samples was an amount of a corresponding one of thirteen adjuvants: (1) no addition-control (“untreated control semen sample); 2) about 5% cyclodextrin; 3) about 2.5% cyclodextrin; 4) about 5% pulp oil in cyclodextrin; 5) about 2.5% pulp oil in cyclodextrin; 6) about 5% seed oil in cyclodextrin; 7) about 2.5% seed oil in cyclodextrin; 8) emulsion of about 5% seed oil, 9) emulsion of about 2.5% seed oil, 10) emulsion of about 5% pulp oil, 11) emulsion of about 2.5% pulp oil, 12) about 5% juice, and 13) about 2.5% juice. Throughout this description the amount of extract is expressed as a percentage volume to volume (v/v) unless otherwise indicated.
Following dilution of each semen sample with E-Z freezin LE and combining the diluted semen with the corresponding adjuvant (“treated semen samples”), the treated semen samples were cooled by reducing the temperature at a controlled rate to about 5° C. […]

stallion sperm cells [2] = type: cell-based; remark: listed apart in the source
Description: In a second experiment (data set out to the right of Exp 2 in Tables 5-6), semen was collected from one stallion via artificial vagina. The motility of the ejaculate was determined objectively using a Hamilton-Thorn sperm analyzer with a 37° C. stage warmer. The assessed data included percentage of motile sperm cells, progressive motile sperm cells, as well as average path velocity, straight line velocity, and straightness of motile sperm cells in accordance with conventional operating procedures for the instrument. […]
Following dilution of each semen sample with E-Z Mixin CST and the corresponding adjuvant, the treated semen samples were cooled by reducing the temperature at a controlled rate to about 4° C. Motility was evaluated subjectively via light microscope immediately at 24, 38, and 72 h after being held at about 4° C. […]

cyclodextrin
effect on sperm cells (spermicidal) (stallion sperm cells [1]): spermicidal
effect on sperm cells (spermicidal) (stallion sperm cells [2]): spermicidal
